Assay results published in patent US20120016010A1, “RNA Interference Mediated Inhibition of BTB and CNC Homology 1, Basic Leucine Zipper Transcription Factor 1 (BACH1) Gene Expression Using Short Interfering Nucleic Acid (siNA)” (Merck Sharp & Dohme Corp, priority 2009, published 2012).

Assays:
Format in all cases: cell-based
HMOX1 mRNA = assay: HMOX1 (HO-1) mRNA upregulation in human bronchial epithelial cells (NHBE); settings: 48 hours post transfection, mean of 3 donors
Method: Human Bronchial Epithelial cells (NHBE cells) obtained from Lonza (Cat. No. CC-2540) were grown at 37deg in the presence of 5% CO2 and cultured in BEBM basal medium (Lonza, Cat. No. CC-3171) on Biocoat Collagen1 coated flasks (Becton Dickinson). NHBE cells were plated in collagen 1 coated plates and cultured in appropriate culture media. The cells were cultured for 24 hours after plating at 37 degrees in the presence of 5% CO2. siNAs were diluted in OptiMEM 1 to 1 uM and the transfection agent to 25 ug/ml. For formulation of the siNAs equal volumes of the diluted siNA and delivery lipid were combined and incubated for 20 minutes at room temperature. Cells were meanwhile trypsinised and resuspended in antibiotic free BEBM media at 150,000 cells/ml. 20 ul of the formulated siNA and 80 ul of BEBM media was added per well of a 96 well plate (6 replicates/data point/siNA concentration) so as to give a nine point dose range of the siNAs (100 nM, 30 nM, 10 nM, 3 nM, 1 nM, 0.3 nM, 0.1 nM, 0.03 nM, 0.01 nM). The time of incubation with the transfection-siNA complexes were 48 hours with one change of media at 24 hours. Total RNA was isolated from the cells in the 96-well plate format using the Automated SV96 Total RNA Isolation System (Promega) according to the manufacturer's instructions. The Biomek 2000 Laboratory Automation Workstation (Beckman Coulter) was used to apply the transfected cell lysates to a silica membrane. RNase-Free DNase I was then applied directly to the silica membrane to digest contaminating genomic DNA. The bound total RNA was further purified from contaminating salts, proteins and cellular impurities by simple washing steps. Finally, total RNA was eluted from the membrane by the addition of Nuclease-Free Water. A series of probes and primers were used for the detection of mRNA transcripts of Bach1, OAS1, IL8 and GAPDH (as control/normalisation) in the human cell lines. The assays were performed on an ABI 7900HT instrument according to the manufacturer's instructions. Primer Probe sets used: With Taqman data critical threshold values (Ct) were converted to copy numbers corresponding to the particular gene analysed in each well of the 384 well plate. Six identical wells were prepared in each plate for a given treatment. […] Relative abundance (aka relative expression) of a gene was determined by dividing the mean copy number of that gene with its GAPDH counterpart in that particular sample. EC50 values were calculated from the data using sigma plot. All calculations of the efficacy and potency of the siNAs were done relative to the non-targeting control siNA. Percentage knockdown was compared between the four lead siNA's. The data was analysed using an ANOVA test and then the p-values were corrected for multiple comparisons using the False Discovery Rate correction (FDR).

Bach1 mRNA [1] = assay: Dose-response curve of Bach1 mRNA knock-down in human A549 cells; settings: for Maximum % KD in DRC: Table 6, Bach1 mRNA, mean ± SD; for IC50: Table 6, mean ± SD
Bach1 mRNA [2] = assay: as above; settings: three experiments, mean ± standard deviation; for IC50: Table 4, Bach1 mRNA knock-down; for Maximum % KD in DRC: Table 4, Bach1 mRNA, 12 concentrations 0.083 fM to 30 nM
Method: All calculations of IC50s were performed using SigmaPlot 10.0 software. The data were analyzed using the sigmoidal dose-response (variable slope) equation for simple ligand binding. In all of the calculations of the % knock-down, the calculation was made relative to the normalized level of expression of the gene of interest in the samples treated with the non-targeting control (Ctrl siNA) unless otherwise indicated. Summary data, as to potency and efficacy for Bach1 mRNA knock-down in human cells for certain siNA molecules, is presented in Table 4. Cells for the experiments were treated with 12 concentrations of siNA ranging from 0.083 fM to 30 nM. All of the data is presented as % knockdown of Bach1 normalized against the expression of GAPDH mRNA expression level. Then the data was determined as a % knockdown relative to the non-targeting control siNA.

29947-DC (sense GGAAUCCUGCUUUCAGUUUTT; antisense AAACUGAAAGCAGGAUUCCUU; inverted abasic caps (B), 2'-modified nucleotides, further chemistry not given here)
Maximum HMOX1 upregulation (HMOX1 mRNA): 1566%
Maximum % KD in DRC (Bach1 mRNA [1]): 86 ± 0.5%
IC50 (Bach1 mRNA [1]): 27 ± 5 pM
IC50 (Bach1 mRNA [2]): 0.027 ± 0.005 nM
Maximum % KD in DRC (Bach1 mRNA [2]): 86 ± 0.5%

29956-DC (sense GUCUGAGUGUCCGUGGUUATT; antisense UAACCACGGACACUCAGACUU; inverted abasic caps (B), 2'-modified nucleotides, further chemistry not given here)
EC50 (HMOX1 mRNA): 33.1 nM
Maximum HMOX1 upregulation (HMOX1 mRNA): 2416%
Maximum % KD in DRC (Bach1 mRNA [1]): 80 ± 7.7%
IC50 (Bach1 mRNA [1]): 28 ± 18 pM
IC50 (Bach1 mRNA [2]): 0.028 ± 0.018 nM
Maximum % KD in DRC (Bach1 mRNA [2]): 80 ± 7.7%

29957-DC (sense GCAGUUACUUCCACUCAAGTT; antisense CUUGAGUGGAAGUAACUGCUU; inverted abasic end caps, TT overhangs, modified nucleotides, further chemistry not given here)
EC50 (HMOX1 mRNA): 29.8 nM
Maximum HMOX1 upregulation (HMOX1 mRNA): 290%
Maximum % KD in DRC (Bach1 mRNA [1]): 87 ± 0.9%
IC50 (Bach1 mRNA [1]): 39 ± 13 pM
IC50 (Bach1 mRNA [2]): 0.039 ± 0.013 nM
Maximum % KD in DRC (Bach1 mRNA [2]): 87 ± 0.9%

29961-DC (sense CUACACUGCUAAACUGAUUTT; antisense AAUCAGUUUAGCAGUGUAGUU; inverted abasic end caps, TT overhangs, modified nucleotides, further chemistry not given here)
EC50 (HMOX1 mRNA): 50.4 nM
Maximum HMOX1 upregulation (HMOX1 mRNA): 10266%
Maximum % KD in DRC (Bach1 mRNA [1]): 89 ± 2.2%
IC50 (Bach1 mRNA [1]): 10 ± 4 pM
IC50 (Bach1 mRNA [2]): 0.01 ± 0.004 nM
Maximum % KD in DRC (Bach1 mRNA [2]): 89 ± 2.2%

29964-DC (sense GAUUUGCAGGUGAUGUUAATT; antisense UUAACAUCACCUGCAAAUCUU; inverted abasic end caps, TT overhangs, modified nucleotides, further chemistry not given here)
EC50 (HMOX1 mRNA): 30.3 nM
Maximum HMOX1 upregulation (HMOX1 mRNA): 4800%
Maximum % KD in DRC (Bach1 mRNA [1]): 87 ± 2.8%
IC50 (Bach1 mRNA [1]): 27 ± 15 pM
IC50 (Bach1 mRNA [2]): 0.027 ± 0.015 nM
Maximum % KD in DRC (Bach1 mRNA [2]): 87 ± 2.8%

29984-DC (sense GUUAAAGGAUUUGAACCUUTT; antisense AAGGUUCAAAUCCUUUAACUU; inverted abasic end caps, TT overhangs, modified nucleotides, further chemistry not given here)
Maximum HMOX1 upregulation (HMOX1 mRNA): 153%

29988-DC (sense AUUUGAACCUUUAAUUCAGTT; antisense CUGAAUUAAAGGUUCAAAUUU; inverted abasic end caps, TT overhangs, modified nucleotides, further chemistry not given here)
EC50 (HMOX1 mRNA): 34.5 nM
Maximum HMOX1 upregulation (HMOX1 mRNA): 550%
Maximum % KD in DRC (Bach1 mRNA [1]): 84 ± 0.9%
IC50 (Bach1 mRNA [1]): 63 ± 19 pM
IC50 (Bach1 mRNA [2]): 0.063 ± 0.019 nM
Maximum % KD in DRC (Bach1 mRNA [2]): 84 ± 0.9%
